Assay results reported in patent US20030032153A1, “Novel (R)-2,3-butanediol dehydrogenase, methods for producing same, and methods for producing optically active alcohol using the dehydrogenase” (priority 2001, published 2003).

T1: Glycerol dehydrogenase produced from Escherichia coli W-1485 (Escherichia coli, UniProt P0A9S5)
T1 construct: host or cells: Escherichia coli W-1485
T1 sequence (P0A9S5 1-367): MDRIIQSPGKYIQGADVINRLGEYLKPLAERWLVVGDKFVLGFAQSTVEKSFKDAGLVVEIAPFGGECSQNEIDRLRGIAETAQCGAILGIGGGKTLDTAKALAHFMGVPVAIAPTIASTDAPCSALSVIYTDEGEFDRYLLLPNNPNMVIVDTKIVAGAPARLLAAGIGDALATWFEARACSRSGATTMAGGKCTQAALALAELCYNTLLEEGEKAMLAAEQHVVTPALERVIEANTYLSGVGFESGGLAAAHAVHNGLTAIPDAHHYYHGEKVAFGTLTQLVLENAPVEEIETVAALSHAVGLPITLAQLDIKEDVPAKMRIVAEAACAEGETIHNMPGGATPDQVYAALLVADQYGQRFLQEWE

B1: enzyme obtained in Example 1: NAD+-dependent (R)-2,3-butanediol dehydrogenase purified from Kluyveromyces lactis strain IFO 1267 (SEQ ID NO:2) (protein, listed as Kluyveromyces lactis)
chain: MRALAYFGKQDIRYTKDLEEPVIETDDGIEIEVSWCGICGSDLHEYLDGPIFFPEDGKVHDVSGLGLPQAMGHEMSGIVSKVGPKVTNIKAGDHVVVEATGTCLDHYTWPNAAHAKDAECAACQRGFYNCCAHLGFMGLGVHSGGFAEKVVVSEKHVVKIPNTLPLDVAALVEPISVSWHAVRISKLQKGQSALVLGAGPIGLATILALQGHGASKIVVSEPAEIRRNQAAKLGVETFDPSEHKEDAVNILKKLAPGGEGFDFAYDCSGVKPTFDTGVHATTFRGMYVNIAIWGHKPIDFKPMDVTLQEKFVTGSMCYTIKDFEDVVQALGNGSIAIDKARHLITGRQKIEDGFTKGFDELMNHKEKNIKILLTPNNHGELDATN

test system: not listed separately; assay: Oxidation activity on (R)-1,3-butanediol of the purified enzyme; format: biochemical, Kluyveromyces lactis; conditions: (R)-1,3-butanediol oxidation activity
Procedure: (§1) A reaction solution containing 50 mM potassium phosphate buffer (pH 6.5), 2.5 mM NAD^+, 20 mM (R)-1,3-butanediol, and the enzyme is reacted at 30° C., and the increase in absorbance at 340 nm due to the increase of NADH is measured. 1 U is defined as the amount of enzyme that catalyzes an increase of 1 μmol NADH in one minute. Further, the quantity of the protein is determined by the pigment bonding method using protein assay kit (Biorad).
The (R)-1,3-butanediol oxidation activity and 4-hydroxy-2-butanone reduction activity of the enzyme obtained in Example 1 was investigated by changing the pH using potassium phosphate buffer solution, sodium acetate buffer solution, and Britton-Robinson wide-range buffer solution. The oxidation activity and the reduction activity are depicted in FIGS. 2 and 3, respectively, wherein the relative activity are indicated taking the maximum activity as 100. The optimum pH was 6.0 for both reactions, oxidation and reduction.
The (R)-1,3-butanediol oxidation activity and 4-hydroxy-2-butanone reduction activity of the enzyme obtained in Example 1 were measured by changing only the temperature of the standard reaction conditions. […] The optimum reaction temperature was 37° C. for both reactions, oxidation and reduction.

Molecule	optimum pH, oxidation
B1	6.0

test system: (R)-2,3-butanediol dehydrogenase; assay: Stereoselectivity, oxidation of alcohol isomers by the enzyme obtained in Example 1; format: biochemical, Kluyveromyces lactis; conditions: coenzyme NAD+; higher oxidation activity between the two isomers taken as 100
Procedure: as §1
The enzyme obtained in Example 1 was reacted with 1,3-butanediol, 1,2-propanediol, 2,3-butanediol, 2-butanol, and 3-chloro-1,2-propanediol, and the activities are shown in Table 3. Herein, the relative activity is indicated, taking the higher oxidation activity between the two isomers as 100. The stereoselectivity for 2,3-butanediol, and 1,2-propandiol of the (R)-2,3-butanediol dehydrogenase according to the present invention was extremely high.

Molecule	Relative Activity (stereoselectivity)
C[C@H](O)CCO [(S)-1,3-butanediol]	35
C[C@H](O)[C@H](C)O [(2S,3S)-2,3-butanediol]	1
(R)-2-butanol	100
C[C@@H](O)CO [(R)-1,2-propanediol]	100
C[C@@H](O)CCO [(R)-1,3-butanediol]	100
C[C@H](O)CO [(S)-1,2-propanediol]	1
OC[C@H](O)CCl [(S)-3-chloro-1,2-propanediol]	100
C[C@@H](O)[C@@H](C)O [(2R, 3R)-butanediol, (2R,3R)-2,3-butanediol]	100
(S)-2-butanol	75
OC[C@@H](O)CCl [(R)-3-chloro-1,2-propanediol]	29

test system: (R)-2,3-butanediol dehydrogenase; assay: Substrate specificity, oxidation reaction of the enzyme obtained in Example 1 with alcohols; format: biochemical, Kluyveromyces lactis; conditions: not given
Procedure: as §1
Herein, the relative activity is indicated taking the oxidation of (R)-1,3-butanediol and reduction of 4-hydroxy-2-butanone as 100.

Molecule	use as a coenzyme in the oxidation reaction
NC(=O)c1ccc[n+]([C@@H]2O[C@H](COP(=O)([O-])OP(=O)(O)OC[C@H]3O[C@@H](n4cnc5c(N)ncnc54)[C@H](OP(=O)(O)O)[C@@H]3O)[C@@H](O)[C@H]2O)c1 [NADP^+, β-nicotinamide adenine dinucleotide phosphate]	substantially unable to use

same assay, conditions: coenzyme NAD+; oxidation of (R)-1,3-butanediol taken as 100

Molecule	Relative Activity, Oxidation Reaction
OCC(O)CO [Glycerin]	66
CC(C)O [Isopropyl alcohol]	48
(R)-2-butanol	28
C[C@@H](O)CO [(R)-1,2-propanediol]	13800
C[C@@H](O)CCO [(R)-1,3-butanediol]	100
CCO [Ethanol]	0
OC[C@H](O)CCl [(S)-3-chloro-1,2-propanediol]	128
n-Butanol	0
C[C@@H](O)[C@@H](C)O [(2R, 3R)-butanediol, (2R,3R)-2,3-butanediol]	15600

test system: not listed separately; assay: Reduction activity on 4-hydroxy-2-butanone of the purified enzyme; format: biochemical, Kluyveromyces lactis; conditions: 4-hydroxy-2-butanone reduction activity
Procedure: (§2) A reaction solution containing 50 mM potassium phosphate buffer (pH 6.5), 0.2 mM NADH, 20 mM 4-hydroxy-2-butanone, and the enzyme is reacted at 30° C., and the decrease in absorbance at 340 nm due to the decrease in NADH is measured. 1 U is defined as the amount of enzyme that catalyzes a decrease of 1 μmol NADH in one minute.
Kluyveromyces lactis strain IFO 1267 was cultured in 1.2 liters of YM medium (glucose 20 g/L, yeast extract 3 g/L, malt extract 3 g/L, peptone 5 g/L, pH 6.0) and the cell bodies were prepared by centrifugation. The resulting wet cell bodies were suspended in 50 mM potassium phosphate buffer (pH 8.0), containing 0.02% 2-mercaptoethanol and 2 mM phenylmethane sulfonylfluoride (PMSF), and after homogenizing with Bead Beater (Biospec), the residue of the cell bodies were removed by centrifugation to obtain a cell-free extract. Protamine sulfate was then added to the cell-free extract followed by centrifugation to obtain enucleated supernatant. […]
The (R)-1,3-butanediol oxidation activity and 4-hydroxy-2-butanone reduction activity of the enzyme obtained in Example 1 were measured by changing only the temperature of the standard reaction conditions. […]

Molecule	optimum pH, reduction
B1	6.0

same assay, conditions: 4-hydroxy-2-butanone reduction activity, after hydroxyapatite column

Molecule	specific activity
B1	about 1.5 U/mg

test system: (R)-2,3-butanediol dehydrogenase; assay: Substrate specificity, reduction reaction of the enzyme obtained in Example 1 with ketones; format: biochemical, Kluyveromyces lactis; conditions: not given

Molecule	use as a coenzyme in the reduction reaction
NC(=O)C1=CN([C@@H]2O[C@H](COP(=O)(O)OP(=O)(O)OC[C@H]3O[C@@H](n4cnc5c(N)ncnc54)[C@H](OP(=O)(O)O)[C@@H]3O)[C@@H](O)[C@H]2O)C=CC1 [NADPH, reduced β-nicotinamide adenine dinucleotide phosphate]	substantially unable to use

target: T1, Glycerol dehydrogenase produced from Escherichia coli W-1485; assay: not given; conditions: J. Biol. Chem. 259: 2124-2129, 1984; NAD+ reduction; cited from earlier work

Molecule	Vmax
C[C@@H](O)[C@@H](C)O [(2R, 3R)-butanediol, (2R,3R)-2,3-butanediol]	28.0 U/mg protein

test system: (R)-2,3-butanediol dehydrogenase; assay: Substrate specificity, reduction reaction of the enzyme obtained in Example 1 with ketones; format: biochemical, Kluyveromyces lactis; conditions: coenzyme NADH; reduction of 4-hydroxy-2-butanone taken as 100
Procedure: as §2
The enzyme obtained in Example 1 was reacted with various alcohols and ketones, and the activity of oxidation and reduction is shown in Table 2. Herein, the relative activity is indicated taking the oxidation of (R)-1,3-butanediol and reduction of 4-hydroxy-2-butanone as 100.

Molecule	Relative Activity, Reduction Reaction
CC(=O)C(C)=O [2,3-Butanedione]	46400
O=C(CO)c1ccccc1 [2-Hydroxy-acetophenone]	360
CC(=O)CC(C)=O [2,4-Pentanedione]	0
CCC(=O)CO [1-Hydroxy-2-butanone]	12100
CCC(=O)C(C)=O [2,3-Pentanedione]	51400
CC(=O)CO [Acetol]	53600
CCC(=O)CC [3-Pentanone]	100
CC(=O)CCO [4-Hydroxy-2-butanone]	100
CCOC(=O)CC(C)=O [Ethyl acetoacetate]	0
CCOC(=O)CC(=O)CCl [4-Chloro-ethyl acetoacetate]	0
CC(C)=O [Acetone]	63
CCC(C)=O [2-Butanone]	31
CC(=O)C(C)O (stereo not drawn) [Acetoin]	101000
CC(=O)c1ccccc1 [Acetophenone]	36
